Experimental data reported in patent US7863415B2 (The Regents of the University of California, priority 2004, dated 2011).
Entries after “also recorded” stand apart in the source; their conditions may differ. Starred links: 1 amine or outer side, 2 acyl side, 3 side chain; linkers in the order of their positions; H or OH if unused. Non-standard residues stand in square brackets, D forms with d. Residues, ends and D or L forms follow the SMILES beside them. X1 = N=C(N)NC(=O)c1nc(Cl)c(N(CC(=O)[*:2])[*:1])nc1N

How the values were obtained:
[1] = Incubation in buffer solutions without enzymes, LC-MS; assay type: in vitro ADME
Description: (§1) Compound 3b is a C5am-Gly-peptide conjugate containing two D-amino acids, and compound 3c is a C5am-Gly-peptide conjugate coupled to a peptide to generate an analog of opioid peptides that cross the blood brain barrier (BBB). The resultant conjugates (compounds 3a-c) were tested for selective cleavage by the brain peptidase enkephalinase (neutral endopeptidase 24.11; Calbiochem) via incubation for 24 h in the presence or absence of the enzyme, and aliquots from the reaction solutions were then analyzed by LC-MS to identify the C5am-Gly conjugate (compound 3a), starting material, and enzymatic cleavage products (see, Scheme 3). As negative control experiments, the conjugates were analyzed following treatment with (1) bovine pancreatic trypsin (Calbiochem) or (2) the buffer solutions without enzymes.

[2] = system: enkephalinase (endopeptidase 24.11); assay: Enzyme digestion with enkephalinase, LC-MS/ESI; assay type: in vitro ADME, porcine; settings: for Conclusion (Peptidase: Enkephalinase): 10 μM conjugate, 10 units enzyme, 25° C., pH 7.4, 24 h; for Cleavage by enkephalinase (release of compound 3a): 24 h incubation, LC-MS
Description: as §1
(§2) Enzyme digestion. Endopeptidase 24.11 (neutral, porcine kidney) and trypsin (bovine pancreas) were purchased from CalBiochem (San Diego, Calif.) and used as received. Enzymatic cleavage experiments using endopeptidase 24.11 were conducted at 25° C. in a pH 7.4 Tris buffer (150 mM NaCl, 50 mM Tris, 0.1% Triton X-100) as recommended by the manufacturer (see also, Barnes et al., J. Neurochem., 64:1826-1832 (1995), Gafford et al., Biochemistry, 22:3265-3271 (1983)). Similarly, trypsin cleavage experiments were conducted at 25° C. in pH 7.4 Dulbecco's phosphate buffered saline (Gibco; Grand Island, N.Y.). The digestion reactions included 10 μM of the amiloride-peptide conjugate and 10 units of enzyme in 250 μL of buffer. Direct aliquots were analyzed by LC-MS/ESI following a 24 hour incubation period.
(§3) Enzyme Digestion Study. Compounds 3a-d were each incubated at 25° C. with 10 units of enkephalinase (endopeptidase 24.11) to determine their susceptibility towards enzymatic cleavage. Reaction aliquots were taken following a 24 hour incubation period and analyzed directly by LC-MS/ESI (Thermo Finnigan LCQ) for the presence of the starting material and the targeted cleavage product, compound 3a (C5am-Gly). […] Since there are no basic amino acid residues in compounds 3a-d, trypsin was employed as a negative control to ensure that any observed cleavage products could be ascribed only to endopeptidase-specific interactions (Jackson, Protein Science, 8:603-613 (1999)).

[3] = molecular target: T1, trypsin (Bos taurus, UniProt P00760); assay: Enzyme digestion with trypsin (negative control), LC-MS/ESI; assay type: in vitro ADME, bovine; settings: for Conclusion (Peptidase: Trypsin): 10 μM conjugate, 10 units enzyme, 25° C., pH 7.4, 24 h; for Cleavage by trypsin (release of compound 3a): 24 h incubation, LC-MS
T1 construct: purchased CalBiochem (San Diego, Calif.); host or cells: bovine pancreas
T1 sequence (P00760 24-246): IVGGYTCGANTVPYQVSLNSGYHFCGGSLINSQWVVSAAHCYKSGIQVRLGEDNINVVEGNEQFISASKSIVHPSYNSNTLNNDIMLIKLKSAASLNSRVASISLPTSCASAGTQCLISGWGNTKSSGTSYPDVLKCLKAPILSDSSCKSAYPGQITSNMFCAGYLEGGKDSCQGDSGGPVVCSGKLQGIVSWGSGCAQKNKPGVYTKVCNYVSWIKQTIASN
Description: as §1, §2, §3

[4] = system: U87 glioma cells; assay: Glioma cell death, manual cell counts with trypan blue exclusion
[5] = system: glioma cells and primary astrocytes; assay: Cell entry by confocal microscopy; assay type: in vitro ADME
[6] = system: glioma in poorly vascularized tumor regions; assay: Single intracerebral infusion of DCB in tumor-bearing animals; assay type: in vivo; settings: 10 pmol over 2 h
Description: Unfortunately, DCB was associated with 4 of 5 animals dying during the following 12 to 24 h.

[7] = system: [Ca^2+]i in U87 glioma cells; assay: [Ca2+]i in U87 glioma cells loaded with fura-2AM, quantitative fluorescent microscopy; assay type: cell-based, human
Description: Therefore, the levels of [Ca^2+]i in U87 glioma cells loaded with fura-2AM were measured using quantitative fluorescent microscopy. […] The ATP-dependent calcium regulatory mechanisms within U87 glioma cells containing fura-2 were then examined. […] ATP synthase operates in reverse when milimolar concentrations of calcium are stored by the mitochondrion (Nicholls, Bioenergetics, 3, Academic Press, London, 3rd edition (2002)).
Quantitative fluorescent microscopy of [Ca^2+]i levels. [Ca^2+]i levels can be measured in cells loaded with either fura-2A or fura-2FFAM under the conditions described above.

[8] = molecular target: NHE1 (Homo sapiens, UniProt P19634); assay: NHE1 inhibition: sodium-dependent pHi recovery in BCECF-loaded U87 glial cells after ammonium chloride pre-pulse; assay type: cell-based; parameters: Sodium-dependent proton extrusion in U87 glial cells and in primary astrocytes is mediated by the type 1 sodium proton exchanger (NHE1); endogenous in cells; host or cells: U87 human glioma cells
Description: Intracellular pH Measurements. U87 glial cells were grown on glass coverslips and incubated for 30 minutes at 37° C. with the pH-sensitive dye, 2′,7′-bis(2-carboxyethyl)-5(6)-carboxyfluorescein-AM (BCECF-AM; Molecular Probes, OR). Cells were rinsed with HEPES Ringer buffer twice and maintained at 37° C. for an additional 15 minutes to permit intracellular hydrolysis of the AM ester; trapping BCECF within the cells. Cells on coverslips were placed in a Hitachi F2000 fluorescent spectrophotometer and excited at 440 and 507 nm with fluorescent emissions recorded at 535 nm (Hegde et al., J. Pharmacol. Exp. Ther., 310:67-74 (2004)).
NHE inhibition by compounds 3a and 3c was evaluated using intracellular pH (pHi) measurements in the U87 human glial cell line (Hegde et al., supra). Cells loaded with BCECF were then acidified using the ammonium chloride pre-pulse method (Roos et al., Physiol Rev, 61:296-434 (1981)). The subsequent sodium-dependent recovery of pHi by these cells in the absence of bicarbonate was monitored using a spectrofluorometer. Sodium-dependent proton extrusion in U87 glial cells and in primary astrocytes is mediated by the type 1 sodium proton exchanger (NHE1) (McLean et al., supra; Hegde et al., supra) and was monitored in the presence or absence of compound 3a or 3c.
IC50 drug determinations for NHE1. This method utilizes spectrofluorometric measurements of [H^+]i as described above. The ammonium chloride prepulse method can be used to acidify cells in the presence of HR that is sodium-substituted with NMDG. Perfusion of the acidified cells with HR that contains sodium causes activation of NHE1 that is inhibited in a concentration-dependent fashion as described in McLean et al., supra.

[9] = system: NHE1 and NCX; settings: NHE1 and NCX inhibitors from the literature; cited from earlier work
[10] = system: T2, Compound 3b (C5am-Gly-D-Ala-Gly-Phe-D-Leu-OH)
T2 sequence: GXGFX

[11] = system: T3, Compound 3c (C5am-Gly-Gly-Gly-Gly-Phe-Leu-OH)
T3 sequence: GGGGFL

[12] = system: T4, Compound 3d (C5am conjugate of the peptide Gly-Gly-Gly-Phe-Leu)
T4 sequence: GGGFL

[13] = system: U87 cells; assay: Intracellular translocation into U87 cells by fluorescence microscopy; settings: 50 μM; 90 and 180 min; 380 nm excitation, 510 nm emission
Source text: Fluorescence Microscopy. […] Excitation light was provided by a xenon arc lamp coupled to the Polychrome IV scanning monochromator (Till Photonics; Grafelfing, Germany) that alternately excites with different wavelengths. Excitation light was delivered by fiber optics to cells through the epifluorescence port of a Nikon E600 microscope coupled to a Nikon Fluor 60× water immersion lens. The detector was an Orca II-ER CCD digital camera (Hamamatsu USA; Bridgewater, N.J.), which is controlled by C-Imaging Simple PCI software (Compix; Cranberry Township, Pa.).
Intracellular emission intensities were collected in regions of interest (ROI) from an average of 4-8 cells/field using Simple PCI imaging software. […] Images were captured as TIFF files (C-imaging Simple PCI software), and light and fluorescent images of the same field were imported in Photoshop 6.0 and vector graphics added using Illustrator 9.0.1 (Adobe; San Jose, Calif.).

[14] = system: U87 glioma cells; assay: Glioma cell proliferation, manual cell counts with trypan blue; assay type: cell-based, human
Description: C(5)-amiloride glycine conjugate (C5am-Gly) inhibits NHE1 in U87 glioma cells and is antiproliferative. […] The inhibitory activity of C5am-Gly against NCX was tested and a systematic log dose screen of C5am-Gly against a panel of glioma cells and primary astrocytes was performed.
Manual cell counts with dye exclusion assays. Identical concentrations of glioma cells can be plated on 60 mm dishes and grown until 50% confluent. Following drug treatments, media containing floating cells can be collected in suspension. Adherent cells can be rinsed in calcium- and magnesium-free phosphate-buffered saline (PBS-CMF) and removed by incubation with 0.25% v/v trypsin for 5 minutes (37° C.). Cell suspensions can be combined with the floating fraction and centrifuged at 350×g for 5 minutes. The resulting pellet (one per dish) can be resuspended in equal volumes of PBS-CMF with 0.4% trypan blue and/or 500 nM Sytox Green. 10 μL aliquots of the suspension can be plated on a hemocytometer, and cells can be counted 5 minutes after staining. Simultaneous staining of cells with trypan (TB) and Sytox Green (SG) can be visualized by switching between visible light and fluorescein green.

NHE1, sequence (P19634 whole entry): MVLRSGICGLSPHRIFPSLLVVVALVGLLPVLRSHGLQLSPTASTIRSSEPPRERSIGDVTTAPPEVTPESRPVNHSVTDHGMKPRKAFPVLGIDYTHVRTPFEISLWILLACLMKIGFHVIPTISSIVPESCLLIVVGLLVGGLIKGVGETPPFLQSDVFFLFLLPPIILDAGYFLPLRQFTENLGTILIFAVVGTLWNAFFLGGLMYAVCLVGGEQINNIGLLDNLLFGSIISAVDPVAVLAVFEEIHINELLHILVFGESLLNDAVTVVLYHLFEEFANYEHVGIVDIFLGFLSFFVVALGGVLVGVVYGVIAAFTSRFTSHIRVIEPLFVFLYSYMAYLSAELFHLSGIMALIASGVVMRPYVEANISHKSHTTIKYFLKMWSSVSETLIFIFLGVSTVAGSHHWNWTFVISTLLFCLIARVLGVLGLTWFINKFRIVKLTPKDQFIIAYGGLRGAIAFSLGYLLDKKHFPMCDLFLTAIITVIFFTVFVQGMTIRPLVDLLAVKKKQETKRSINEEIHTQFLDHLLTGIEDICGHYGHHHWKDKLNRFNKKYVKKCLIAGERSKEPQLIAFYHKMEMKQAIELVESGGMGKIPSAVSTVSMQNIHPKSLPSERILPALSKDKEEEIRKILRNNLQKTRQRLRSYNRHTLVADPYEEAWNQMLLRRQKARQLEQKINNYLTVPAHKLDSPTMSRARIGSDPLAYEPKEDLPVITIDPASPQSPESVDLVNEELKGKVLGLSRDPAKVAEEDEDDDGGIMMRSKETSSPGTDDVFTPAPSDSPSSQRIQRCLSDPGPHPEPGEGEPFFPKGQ

## CC(C)C[C@@H](NC(=O)[C@H](Cc1ccccc1)NC(=O)CNC(=O)[C@@H](C)NC(=O)CNc1nc(N)c(C(=O)NC(=N)N)nc1Cl)C(=O)O [Compound 3b, C5am-Gly-D-Ala-Gly-Phe-D-Leu-OH] (H-[X1][dA]GF[dL]-OH)
[1]
  Stability in control (buffer) digestion: not cleaved
[2]
  Conclusion (Peptidase: Enkephalinase): Enkephalinase resistant
  Cleavage by enkephalinase (release of compound 3a): not cleaved; also recorded: resistant
[3]
  Conclusion (Peptidase: Trypsin): Trypsin resistant
  Cleavage by trypsin (release of compound 3a): not cleaved; also recorded: resistant

## N=C(NCc1ccc(Cl)cc1Cl)NC(=O)c1nc(Cl)c(N)nc1N [DCB, 2,4-dichlorobenzamil]
[4]; U87 glioma cells, C2am-Gly within 24 h
  Concentration that killed U87 glioma cells: 15 µM
[4]; glioma cells
  Glioma Effect: cytotoxic concentration: 15 μM cytotoxic
[4]; glioma cells, amiloride within 48-72 hours
  Concentration that killed glioma cells: ≥ 20 µM
[5]
  Time to enter glioma cells and primary astrocytes: ≤ 150 min
[6]
  Animals dying during the following 12 to 24 h: 4 of 5
  Glioma death within poorly vascularized tumor regions (histology): extensive glioma death
[7]; U87 glioma cells, FCCP or oligomycin
  Effect of pretreatment on [Ca2+]i after calcium release from mitochondrial stores: increase to cytotoxic levels
[7]; pretreatment followed by oligomycin or FCCP
  Persistent increase of [Ca2+]i: > 800 nM
[8]; U87 glioma cells loaded with BCECF
  Concentration that inhibits NHE1 and reduces pHi: 50-100 nM
[9]
  Rel. Activity: NCX > NHE

## Enkephalinase (neutral endopeptidase 24.11, porcine kidney; CalBiochem)
[10]
  Enzymatic digestion, LC-MS fragments at 24 h; Conclusion: Enkephalinase resistant
[11]
  Enzymatic digestion, LC-MS fragments at 24 h; Conclusion: Enkephalinase-mediated release of 3a
[12]
  Enzymatic digestion, LC-MS fragments at 24 h; Conclusion: Enkephalinase resistant

## N=C(N)NC(=O)c1nc(Cl)c(NCC(=O)O)nc1N [Compound 3a]
[1]
  Stability in control (buffer) digestion: unaffected
[13]
  Intracellular accumulation in U87 cells: no intracellular fluorescence above mean intracellular background; also recorded: failed to detect; also recorded: did not accumulate
[14]; glioma cells
  Glioma Effect: antiproliferative concentration: ≦100 μM antiproliferative
[14]; ≦100 μM, 48 h
  Proliferation of U87 glioma cells, % of stage-matched controls: 22%
[8]; U87 glial cells, sodium-dependent pHi recovery without bicarbonate, read-out: IC50 (μM) +/− SD (NHE inhibition)
  IC50: 13 ± 7 µM
[2]
  Conclusion (Peptidase: Enkephalinase): Enkephalinase resistant
  Cleavage by enkephalinase (release of compound 3a): unaffected; also recorded: stable
[3]
  Conclusion (Peptidase: Trypsin): Trypsin resistant
  Cleavage by trypsin (release of compound 3a): unaffected; also recorded: stable
